Laboratory results: EP0603160A2, “Compositions for in-situ active compound assembly” (SCRIPPS CLINIC AND RESEARCH FOUNDATION, priority 1986, dated 1988)
Like-named read-outs stand apart in the source and are kept apart here.

Assays:
Ox blood erythrocytes = assay: Erythrocyte killing with or without 1% serum, light scattering; format: cell-based; conditions: for mortality at 1.4 µM / mortality at 2 µM / mortality at 2.8 µM / mortality at 4 µM / mortality at 5.6 µM / mortality at 8 µM / mortality at 11.2 µM / mortality at 16 µM / mortality at 22.4 µM / mortality at 32 µM / mortality at 1 µM: Bos taurus, Erythrocyte, 1 h; for mortality at 1.4 µM: DIOG 1.4 µM; for mortality at 2.8 µM: DIOG 2.8 µM; for mortality at 4 µM: DIOG 4 µM; for mortality at 5.6 µM: DIOG 5.6 µM; for mortality at 11.2 µM: DIOG 11.2 µM; for mortality at 22.4 µM: DIOG 22.4 µM; for mortality at 32 µM: DIOG 32 µM; for mortality at 1 µM: DIOG 1 µM
Method: Ox blood erythrocytes were incubated for one hour in PBS at pH 6.6 in the presence or absence of 1% serum at 37°C. […] However, at 4-16 µM DIOG, the percentage of cells killed increased from 4.3 to 60.9. On the other hand, in the absence of serum, 7.2.% cells were killed even without the addition of DIOG, and a steady increase in killing occurred as the DIOG concentration increased, reaching 100% of cells killed at 8 µM.
The AOG concentration was maintained at a high level (448 µM) and the decanal concentration varied from 0-16 µM corresponding the previous DIOG concentration range. In this protocol, similar results were obtained for cells incubated in the absence of serum, but in the presence of 1% serum the curve was slightly displaced so that the cells appeared more protected as shown in Table 4.

human erythrocytes = assay: Erythrocyte lysis (light scattering, hemoglobin release, cell counts); format: cell-based
Method: The putative product shown in Reaction Scheme 1 is evidently cytotoxic, since a suspension of human erythrocytes in a solution containing both CHD and DAPG in phosphate buffered saline is 95% lysed or aggregated within 1-14 hours under physiological conditions (the precise time depending on the concentrations) whereas erythrocytes are stable for at least 24 hours in plain PBS, and also in solutions containing either DAPG or CHD alone. In addition, when erythrocytes are incubated with mixtures of CHD and DAPG, a substantial induction period is observed during which no lysis or aggregation occurs, due to the time lag in formation of the cytotoxic material. Whether lysis or aggregation results depends on relative concentration; excess CHD results in lysis, equimolar concentrations in aggregation. The cytotoxicity may be due to the formation of the polycation, analogous to the known antitumor activity of poly-(L-lysine); Arnold, L. J. Proc. Natl Acad Sci (supra).
For erythrocytes blood was collected and stored with KEDTA at 4°C and erythrocytes prepared within 48 hours by centrifuging three times in phosphate-buffered saline (PBS, pH 7.4). Suspensions containing 3 x 10⁷ cells/ml were prepared in PBS containing 1% EtOH, but no […] cations, and incubated at 37°C with the compounds or mixtures to be tested.
On the other hand, while a mixture of 28 µM AOG and 28 µM decanal (reagent grade, Aldrich Chemical Co.) results in less than 10% lysis within the same 20 minute time frame, as the time of incubation increases, lysis increases also, as indicated by hemoglobin release measured by (1) light absorption of the supernatant at 400 nm. (2) decrease of light scattering by the cells at 700 nm, and (3) direct cell counts using a microscope. […] Suspensions of 3.5 x 10⁷ cells/ml prepared as above in PBS (1% EtOH, no divalent cations, pH 7.4) were incubated at 37°C, and cell lysis was followed by observing the decrease in absorbance at 700 nm. For 0% lysis, A₇₀₀ is 1.0; 0.2 for 100% lysis).
The curves were calculated using a nonlinear least squares fitting algorithm (Arc, H, et al, Statistical Methods (1970) Harper & Row, pp. 100-111) and based on a modified Hill equation (Cantor, C.R. et al, supra) wherein percent hemolysis is calculated as 100% divided by (1+(K/C))^α [formula] . In this equation, K is the median effect concentration, C is the concentration of DIOG (or of decanal and AOG), and α is the Hill constant.

[1] = pH 6.6, similar experiment (Table 3), read-out: % Cells Killed (0% Serum)
[2] = pH 6.6, similar experiment (Table 3), read-out: % Cells Killed (1% Serum)
[3] = one hour, PBS pH 6.6, 37°C (second Table 2), read-out: % cells killed (0% serum)
[4] = one hour, PBS pH 6.6, 37°C (second Table 2), read-out: % cells killed (1% serum)

CCCCCCCCCC=NNC(=N)NCCCCCCCC [DIOG, N-1-decylidenimino-N'-octylguanidine]
mortality at 1.4 µM (Ox blood erythrocytes; [1]): 1.3% | mortality at 1.4 µM (Ox blood erythrocytes; [2]): 0% | mortality at 2 µM (Ox blood erythrocytes; pH 6.6, DIOG 2 µM, similar experiment (Table 3), read-out: % Cells Killed (0% Serum)): 17.9% | mortality at 2 µM (Ox blood erythrocytes; pH 6.6, DIOG 2 µM, similar experiment (Table 3), read-out: % Cells Killed (1% Serum)): 5.1% | mortality at 2.8 µM (Ox blood erythrocytes; [1]): 17.9% | mortality at 2.8 µM (Ox blood erythrocytes; [2]): 9% | mortality at 4 µM (Ox blood erythrocytes; [1]): 48.7% | mortality at 4 µM (Ox blood erythrocytes; [2]): 11.5% | mortality at 5.6 µM (Ox blood erythrocytes; [1]): 91% | mortality at 5.6 µM (Ox blood erythrocytes; [2]): 16.7% | mortality at 8 µM (Ox blood erythrocytes; pH 6.6, DIOG 8 µM, similar experiment (Table 3), read-out: % Cells Killed (0% Serum)): 100% | mortality at 8 µM (Ox blood erythrocytes; pH 6.6, DIOG 8 µM, similar experiment (Table 3), read-out: % Cells Killed (1% Serum)): 35.9% | mortality at 11.2 µM (Ox blood erythrocytes; [1]): 100% | mortality at 11.2 µM (Ox blood erythrocytes; [2]): 37.2% | mortality at 16 µM (Ox blood erythrocytes; pH 6.6, DIOG 16 µM, similar experiment (Table 3), read-out: % Cells Killed (0% Serum)): 100% | mortality at 16 µM (Ox blood erythrocytes; pH 6.6, DIOG 16 µM, similar experiment (Table 3), read-out: % Cells Killed (1% Serum)): 51.3% | mortality at 22.4 µM (Ox blood erythrocytes; [1]): 100% | mortality at 22.4 µM (Ox blood erythrocytes; [2]): 100% | mortality at 32 µM (Ox blood erythrocytes; [1]): 100% | mortality at 32 µM (Ox blood erythrocytes; [2]): 98.7% | mortality at 1 µM (Ox blood erythrocytes; [3]): 10.1% | mortality at 1 µM (Ox blood erythrocytes; [4]): 0% | mortality at 2 µM (Ox blood erythrocytes; DIOG 2 µM, one hour, PBS pH 6.6, 37°C (second Table 2), read-out: % cells killed (0% serum)): 29% | mortality at 2 µM (Ox blood erythrocytes; DIOG 2 µM, one hour, PBS pH 6.6, 37°C (second Table 2), read-out: % cells killed (1% serum)): 0% | mortality at 4 µM (Ox blood erythrocytes; [3]): 47.8% | mortality at 4 µM (Ox blood erythrocytes; [4]): 4.3% | mortality at 8 µM (Ox blood erythrocytes; DIOG 8 µM, one hour, PBS pH 6.6, 37°C (second Table 2), read-out: % cells killed (0% serum)): 100% | mortality at 8 µM (Ox blood erythrocytes; DIOG 8 µM, one hour, PBS pH 6.6, 37°C (second Table 2), read-out: % cells killed (1% serum)): 29% | mortality at 16 µM (Ox blood erythrocytes; DIOG 16µM, one hour, PBS pH 6.6, 37°C (second Table 2), read-out: % cells killed (0% serum)): 100% | mortality at 16 µM (Ox blood erythrocytes; DIOG 16µM, one hour, PBS pH 6.6, 37°C (second Table 2), read-out: % cells killed (1% serum)): 60.9% | % cells killed (1% serum) (Ox blood erythrocytes; DIOG 2 µM, one hour, PBS pH 6.6, 37°C (second Table 2)): no cell killing | % cells killed (0% serum) (Ox blood erythrocytes; DIOG 8 µM, one hour, PBS pH 6.6, 37°C (second Table 2), 60 min): 100% | lysis (human erythrocytes; 14 µM DIOG previously prepared, in 20 minutes, 37°C): complete lysis | EC50 (human erythrocytes; Erythrocyte, hemoglobin release from human erythrocytes, absorption at 400 nm, modified Hill equation fit, Figure 4, read-out: median effect concentration): 6.2 µM
